Data as given in US20120065123A1, “Synthetic Antibodies” (priority 2009, published 2012).
Where no end group is shown, it is not given here.

What was measured:
Transferrin [1] = target: T1, Transferrin (Homo sapiens, UniProt P02787); experiment: Affinity characterization of TRF26 lead and selected mutants; format: binding
Protocol: Two TRF26 point-mutants (P6Y, H12F) were selected for further affinity characterization. The P6Y and H12F point-mutants have dissociation constants of 8.6±1.6 μM and 9.8±1.6 μM respectively. […] A TRF26 double mutant sequence containing the P6Y+H12F mutations was synthesized and characterized.

Transferrin [2] = target: T1, Transferrin; experiment: Peptide microarray ranking, labeled transferrin with E. coli lysate competitor; format: binding
Protocol: Several polypeptides were identified as candidate affinity elements for synbodies against an arbitrarily chosen protein target, transferrin, by incubating transferrin on the polypeptide microarray in the presence of E. coli lysate competitor. Transferrin was randomly direct-labeled at free amines with Alexa™ 555, and E. coli lysate was randomly direct-labeled at free amines with Alexa™ 647. Three replicate arrays were passivized by applying a mixture of BSA and mercaptohexanol for one hour. The arrays were blocked with unlabelled E. coli lysate for one hour, then washed three times with TBST (0.05% Tween) followed by three times with water. A mixture of labeled transferrin and labeled E. coli lysate was applied to the three replicate arrays and incubated for three hours. The arrays were again washed three times with TBST (0.05% Tween) followed by three times with water, and scanned at 555 nm and 647 nm using an array reader. Polypeptides were ranked as candidates for inclusion as affinity elements of synbodies by computing a score for each polypeptide equal to the mean raw 555 nm intensity over the six replicate features, squared, divided by the mean raw 647 nm intensity over the six replicate features. This simple scoring function tends to favor candidate polypeptides that bind at least moderate affinity, since otherwise the 555 nm intensity would be relatively lower, and that are relatively specific, since otherwise the 647 nm intensity would be relatively higher and contribute to a relatively lower score. Many variations of this ranking and identification process can be used, such as, by way of non-limiting examples, two-color comparisons against other competitors; comparisons with data taken in separate experiments with respect to other targets; and use of scoring functions taking into account other factors, employing other functional relationships, and/or involving statistical analysis and/or preprocessing of data and/or correcting for background fluorescence and/or other factors affecting the accuracy of the measured intensities. Ten polypeptides (Table 1) were identified for further evaluation for use as affinity elements in synbodies by choosing the polypeptides having the highest score (one polypeptide was rejected as difficult to synthesize, so the polypeptides chosen were ten of those having the eleven highest scores).
After preparation of the array in accordance with the methods previously described in Example 2, the array was washed one time for five minutes in 7.33% acetonitrile, 37% isopropanol, 0.55% trifluoroacetic acid, and 55% water. Alexa 555 labeled target protein transferrin was applied, together with Alexa 647 labeled E. coli lysate competitor, to the prewashed array and to an identical array without organic prewash. […] 5,010 on the array without organic prewash, but ranked no. 9601 on the prewashed array. Conversely, peptide TRF-21, shown by SPR analysis to be a relatively strong binder of transferrin, rose in rank from 84 on the non-prewashed array to rank no. 5 on the prewashed array.

Transferrin [3] = target: T1, Transferrin; experiment: SPR analysis of peptide pairs for binding to distinct sites on target; conditions: peptides applied in 1:1 mixtures in pairs
Description: The transferrin target was immobilized on a Biacore T100 SPR chip, and candidate polypeptides were applied in 1:1 mixtures in pairs and response data obtained, in accordance with the methods described in Example 4 above. As illustrated in FIGS. 12A-D, upon flowing candidate polypeptides over the immobilized target, ideally one polypeptide applied alone would bind to a first binding site on the target and produce a first characteristic SPR response level (FIG. 12A), the other polypeptide would bind to a second, distinct binding site on the target, producing a second characteristic response level (FIG. 12B), and a mixture of the two polypeptides together (at the same concentrations as before) would produce a response level approximating the sum of the response levels produced by each polypeptide alone, as the polypeptides bind to distinct binding sites (FIG. 12C).

Transferrin [4] = target: T1, Transferrin; experiment: SPR solution phase KD of candidate affinity elements, transferrin immobilized (Biacore T100); format: binding; conditions: steady-state response, 25° C., PBST
Protocol: Transferrin 25 μg/ml in immobilization buffer selected for correct pH was then applied 302 at a flow rate of 5 to 10 μl/min for a contact time of about 5 to 10 minutes, allowing the amine functionality on the transferrin 308 to displace the activated NHS ester and bond to the surface via an amide bond. Finally, ethylene diamine (1M ethylene diamine-HCl at pH 8.5) was applied 304 at a flow rate of 5 to 10 μl/min for a contact time of about 6 to 7 minutes to deactivate any remaining reactive groups on the dextran chip surface. Flow rates and contact times are adjusted as necessary to provide the surface concentration of target desired for the intended application, and may vary by target. In general, for evaluating whether binding occurs, it is preferable to immobilize a relatively large quantity of target, and higher flow rates and/or longer contact times may be used. For determining kinetics, it is preferable to limit the amount of target immobilized so as to minimize rebinding and avidity effects, and lower flow rates and/or contact times may be used.
Candidate affinity elements for the transferrin synbody TRF19, TRF21, TRF23, TRF24, TRF25, and TRF26 were individually evaluated for solution phase KD with respect to transferrin by SPR analysis. Because the off rates for these polypeptides were very high, KD values were estimated by measuring steady-state response for at least five concentrations in a two-fold dilution series, each concentration tested in duplicate. For each experiment, response data were processed using a reference surface to correct for bulk refractive index changes and any non-specific binding. Data were also double referenced using responses from blank running buffer injections. Each experiment was conducted at 25° C. using PBST (0.01M Phosphate Buffered Saline, 0.138M NaCl, 0.0027M KCl, 0.05% surfactant Tween20, pH 7.4) as the running buffer on a Biacore T100 instrument. Analytes were injected for 60 s at a flow rate of 30 μl/min. The antigen surfaces were regenerated with 30 s consecutive pulses of NaOH/NaCl (50 mM NaOH in 1M NaCl) and Glycine (10 mM glycine-HCl, pH 2.5).

TNF-α [5] = target: T2, TNF-α (Homo sapiens, UniProt P01375); experiment: SPR of TNF1 lead and mutant peptides on captured TNF-α (Biacore A100); format: binding; conditions: several sensorgrams; read-out: Kd determined from kinetic fits
T2 sequence (P01375 77-233 limits assumed, species assumed): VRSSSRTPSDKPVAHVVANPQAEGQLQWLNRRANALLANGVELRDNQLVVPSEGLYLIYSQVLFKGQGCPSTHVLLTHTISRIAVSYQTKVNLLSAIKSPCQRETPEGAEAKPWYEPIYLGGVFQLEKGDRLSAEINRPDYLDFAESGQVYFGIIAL

TNF-α [6] = target: T2, TNF-α; experiment: Fluorescence anisotropy validation of TNF1-opt affinity; format: binding
Protocol: Affinity Characterization of Double, Triple and Quadruple Mutants. […] In all cases, an improvement in TNF-α affinity was observed when an additional enhancing substitution was added to the sequence. Double mutants were better than the corresponding single mutants, triple mutants were better than the corresponding single/double mutants and the quadruple mutant was better than the corresponding single/double/triple mutants (FIG. 71, Table 2).

TNF-α [7] = target: T2, TNF-α; experiment: SPR of TNF1 lead and mutant peptides on captured TNF-α (Biacore A100); format: binding
Description: Scanning Mutagenesis of the TNF1 Lead Peptide. After lead identification, the next step in the AMPLI algorithm is characterization of point mutations in the lead heteropolymer. Using short peptides makes it chemically feasible to synthesize a significant fraction of the point-mutant space, which can then be screened for enhanced point mutations. For example, all possible point mutations in the 17 randomized positions using all 20 natural amino acids could be synthesized and screened within a single 384-well plate (323 total point-mutants). However, libraries containing all 20 natural amino acids are not required for affinity optimization of protein-protein interactions. A library of TNF1 point-mutants containing all substitutions of the amino acid set {Y, A, D, S, K, N, V, W} in each of the 17 randomized positions (132 unique point-mutants) was synthesized. Tyrosine (Y), alanine (A), aspartic acid (D) and serine (S) were selected because of their effectiveness in producing high affinity interactions when substituted into the complementary-determining regions (CDRs) of synthetic antibodies (Felouse, Proceedings of the National Academy of Sciences 101(34):12467, 2004), lysine (K) was selected to balance the charge in the substitution set, asparagine (N), valine (V) and tryptophan (W) were selected to span the hydropathicity range (Kyte J & Doolittle R F, Journal of Molecular Biology 157(1):105-132, 1982). […] This concentration was used to increase the high-end dynamic range for quantifying enhancing point mutations at the expense of low-end dynamic range for quantifying detrimental point mutations.
Point-mutant libraries were prepared in 96-well stock plates From the stock plate, peptides were diluted to 50 μM concentration in Biacore HBS-EP buffer (GE Healthcare, Piscataway, N.J.) containing 1 mg/ml carboxymethyl-dextran (Sigma-Aldrich, St. Louis, Mo.) to reduce non-specific binding to the CM-5 SPR chip surface. TNF-α was captured on a CM-5 chip surface at different capture levels on spots 1, 2, 4, and 5 across all four flow cells corresponding to a 40-200 RU range of predicted Rmax binding responses. Spot 3 contained only immobilized neutravidin and served as a reference spot.
Using the prepared 96-well plates and Biacore A100 SPR instrument, four peptides were flowed separately, in parallel, through the four flow cells over all 4 TNF-α spots and the neutravidin reference spot, with a 60 second association phase and 300 second dissociation phase. SPR sensorgrams were recorded for each peptide response with all 4 TNF-α spots and the neutravidin reference spot across the four flow cells on the SPR chip. Surface regeneration was performed after every 12 injections in each flow cell with Biacore Glycine 2.5 regeneration solution (GE Healthcare, Piscataway, N.J.). Point-mutant reference subtracted, peptide molecular weight adjusted, responses at the late binding region of the sensorgram (a few seconds before dissociation) were compared to the response of the TNF1 lead
Purified point-mutant affinities were measured on the Biacore A100 using SPR equilibrium binding response across a series of peptide concentrations on an SPR chip with TNF-α captured as described above.
These sequences were synthesized and purified using standard solid-phase FMOC synthesis and HPLC purification.

T1 sequence (P02787 20-698): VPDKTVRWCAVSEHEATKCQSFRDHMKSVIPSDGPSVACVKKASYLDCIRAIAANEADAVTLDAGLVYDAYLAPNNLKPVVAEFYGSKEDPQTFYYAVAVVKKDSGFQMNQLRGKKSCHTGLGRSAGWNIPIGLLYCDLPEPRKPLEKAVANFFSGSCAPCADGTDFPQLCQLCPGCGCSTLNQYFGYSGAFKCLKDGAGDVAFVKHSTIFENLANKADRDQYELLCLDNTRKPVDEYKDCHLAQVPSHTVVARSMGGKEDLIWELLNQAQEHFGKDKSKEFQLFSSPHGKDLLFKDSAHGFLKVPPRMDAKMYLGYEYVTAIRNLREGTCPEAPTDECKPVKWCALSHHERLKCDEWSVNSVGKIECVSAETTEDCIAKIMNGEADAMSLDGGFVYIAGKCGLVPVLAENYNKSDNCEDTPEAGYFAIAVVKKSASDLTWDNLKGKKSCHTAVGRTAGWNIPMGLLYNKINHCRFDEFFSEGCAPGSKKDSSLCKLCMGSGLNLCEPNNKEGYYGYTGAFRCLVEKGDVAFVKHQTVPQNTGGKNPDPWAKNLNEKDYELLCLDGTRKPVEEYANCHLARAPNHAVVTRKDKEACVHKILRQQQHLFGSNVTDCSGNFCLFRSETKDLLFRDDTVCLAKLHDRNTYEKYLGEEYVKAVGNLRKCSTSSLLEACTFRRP

Sequence | Binding ΔG (observed) (Transferrin [1]) [kcal/mol] | Rank -- prewash (Transferrin [2]; array with organic prewash) | Rank - non-prewash (Transferrin [2]; array without organic prewash) | binding to distinct sites on transferrin (Transferrin [3]) | Kd (Transferrin [4]) [nM] | Kd (TNF-α [5]) [nM] | Kd (TNF-α [6]) [nM] | Kd Fold-Change Relative to Lead (TNF-α [7]) | Kd (TNF-α [7]; SPR equilibrium binding response, read-out: Kd (observed)) [nM] | Binding ΔG (observed) (TNF-α [7]; calculated from dissociation constants) [kcal/mol] | Kd (TNF-α [7]; energetic additivity of component mutations, read-out: Predicted Kd) [nM]
AHKVVPQRQIRHAYNRYGSC [TRF26] | -5.56 ± 0.10 | 436 | 596 | bind distinct sites on transferrin | ~100000 | – | – | – | – | – | –
FERSYLKMPWKFLQSRQGSC [TNF1-opt] | – | – | – | – | – | 700 ± 20 | 1100 ± 200 | 100 ± 22 | 1600 ± 300 | -7.97 ± -0.11 | 700 to 1900
